We go through two compounds from ChEMBL document CHEMBL3098003, “Structure-based design of 2-aminopyridine oxazolidinones as potent and selective tankyrase inhibitors” (ACS Med Chem Lett, 2013).

A value given as a limit tells only on which side of the number the result lay.

One data set concerns the target T1, Tankyrase 1/2 (Homo sapiens, UniProt Q9H2K2+O95271).
T1 sequence (Q9H2K2 whole entry): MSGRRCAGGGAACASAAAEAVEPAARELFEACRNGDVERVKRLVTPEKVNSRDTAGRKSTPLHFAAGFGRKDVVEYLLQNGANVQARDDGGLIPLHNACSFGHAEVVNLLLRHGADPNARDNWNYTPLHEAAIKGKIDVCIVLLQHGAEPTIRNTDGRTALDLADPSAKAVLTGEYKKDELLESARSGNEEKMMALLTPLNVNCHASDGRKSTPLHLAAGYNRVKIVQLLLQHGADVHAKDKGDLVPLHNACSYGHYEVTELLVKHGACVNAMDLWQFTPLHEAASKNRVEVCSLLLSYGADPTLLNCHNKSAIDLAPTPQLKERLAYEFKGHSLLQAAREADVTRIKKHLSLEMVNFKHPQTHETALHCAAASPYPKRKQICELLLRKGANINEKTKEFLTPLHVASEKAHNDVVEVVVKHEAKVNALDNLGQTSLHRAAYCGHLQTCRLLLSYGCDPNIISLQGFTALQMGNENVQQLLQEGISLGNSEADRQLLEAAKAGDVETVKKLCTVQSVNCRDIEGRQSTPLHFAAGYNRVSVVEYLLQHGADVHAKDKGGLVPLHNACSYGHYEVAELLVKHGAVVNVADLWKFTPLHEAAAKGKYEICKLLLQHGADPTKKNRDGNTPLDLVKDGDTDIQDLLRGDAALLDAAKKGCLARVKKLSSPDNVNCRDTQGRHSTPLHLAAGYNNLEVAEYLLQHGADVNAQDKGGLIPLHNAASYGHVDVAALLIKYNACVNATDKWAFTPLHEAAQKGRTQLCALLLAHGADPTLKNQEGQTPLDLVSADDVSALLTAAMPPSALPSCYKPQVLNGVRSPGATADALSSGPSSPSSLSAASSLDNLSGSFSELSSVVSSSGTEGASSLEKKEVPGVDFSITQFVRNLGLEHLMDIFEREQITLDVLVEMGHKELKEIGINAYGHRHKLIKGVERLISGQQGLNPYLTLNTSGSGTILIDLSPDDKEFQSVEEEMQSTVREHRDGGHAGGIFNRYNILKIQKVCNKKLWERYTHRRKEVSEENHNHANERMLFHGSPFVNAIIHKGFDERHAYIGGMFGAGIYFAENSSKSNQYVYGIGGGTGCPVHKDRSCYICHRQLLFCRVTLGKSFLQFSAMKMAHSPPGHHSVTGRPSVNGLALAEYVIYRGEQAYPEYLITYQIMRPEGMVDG
T1 sequence (O95271 whole entry): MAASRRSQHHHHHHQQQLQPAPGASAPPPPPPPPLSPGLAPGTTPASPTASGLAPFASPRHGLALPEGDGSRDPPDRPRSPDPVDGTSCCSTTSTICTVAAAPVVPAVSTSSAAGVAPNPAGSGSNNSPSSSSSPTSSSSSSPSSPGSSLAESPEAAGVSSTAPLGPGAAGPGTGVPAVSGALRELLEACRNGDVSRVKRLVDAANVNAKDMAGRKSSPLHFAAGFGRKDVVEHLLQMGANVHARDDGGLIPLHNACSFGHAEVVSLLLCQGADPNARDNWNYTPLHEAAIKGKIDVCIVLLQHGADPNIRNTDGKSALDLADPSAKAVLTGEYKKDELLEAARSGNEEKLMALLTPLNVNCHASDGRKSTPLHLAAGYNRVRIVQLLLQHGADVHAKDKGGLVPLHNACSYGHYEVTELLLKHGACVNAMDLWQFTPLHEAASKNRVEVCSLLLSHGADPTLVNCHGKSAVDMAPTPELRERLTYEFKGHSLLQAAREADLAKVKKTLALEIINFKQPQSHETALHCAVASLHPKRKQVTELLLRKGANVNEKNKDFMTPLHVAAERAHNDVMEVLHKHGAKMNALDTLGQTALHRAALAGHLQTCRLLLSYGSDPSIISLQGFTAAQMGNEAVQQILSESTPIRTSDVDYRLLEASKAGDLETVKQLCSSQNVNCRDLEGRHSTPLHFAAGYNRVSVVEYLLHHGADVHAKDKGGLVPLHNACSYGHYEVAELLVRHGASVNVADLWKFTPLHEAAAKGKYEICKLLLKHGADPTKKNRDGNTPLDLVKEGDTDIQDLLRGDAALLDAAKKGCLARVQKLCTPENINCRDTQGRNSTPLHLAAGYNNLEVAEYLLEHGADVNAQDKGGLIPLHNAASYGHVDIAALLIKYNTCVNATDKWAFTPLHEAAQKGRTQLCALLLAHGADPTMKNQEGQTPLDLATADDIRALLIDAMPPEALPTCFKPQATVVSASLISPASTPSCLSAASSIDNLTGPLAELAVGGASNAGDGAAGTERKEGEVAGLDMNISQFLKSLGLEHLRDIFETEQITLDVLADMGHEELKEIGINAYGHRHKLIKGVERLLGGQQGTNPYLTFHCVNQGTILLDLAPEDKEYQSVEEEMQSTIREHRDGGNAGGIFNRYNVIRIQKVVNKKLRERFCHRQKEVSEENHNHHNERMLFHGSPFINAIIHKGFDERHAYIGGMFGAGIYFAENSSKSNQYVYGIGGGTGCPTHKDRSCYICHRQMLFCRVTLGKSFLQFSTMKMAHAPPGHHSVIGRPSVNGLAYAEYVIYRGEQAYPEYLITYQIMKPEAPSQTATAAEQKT
The experiment in a line: Inhibition of tankyrase in human DLD1 cells assessed as inhibition of Wnt gene transcription after 40 to 48 hrs by STF assay. The class given is cell-based. The note with it: dld-1.

The nature of data set [1]: Half life in Sprague-Dawley rat at 2 mg/kg, po. The arrangement: dose 2 mg/kg, route oral. The note with it: in vivo. Type of data set: ADME, organism-based.
In data set [2] the target is C-X-C chemokine receptor type 2 (Homo sapiens, UniProt P25025). Kind of data set: Binding affinity to CXCR2 (unknown origin).
Sequence of C-X-C chemokine receptor type 2 (P25025 whole entry): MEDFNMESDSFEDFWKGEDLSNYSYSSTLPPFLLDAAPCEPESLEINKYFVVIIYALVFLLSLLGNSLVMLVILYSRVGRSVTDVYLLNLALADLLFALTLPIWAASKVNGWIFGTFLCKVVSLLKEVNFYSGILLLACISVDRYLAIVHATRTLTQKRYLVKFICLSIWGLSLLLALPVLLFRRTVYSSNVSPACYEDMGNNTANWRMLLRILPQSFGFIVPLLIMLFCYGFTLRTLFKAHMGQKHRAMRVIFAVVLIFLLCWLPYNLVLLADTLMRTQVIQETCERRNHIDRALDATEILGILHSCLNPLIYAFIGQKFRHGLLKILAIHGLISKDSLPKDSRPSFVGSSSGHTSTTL
Data set [3] has as its target Poly [ADP-ribose] polymerase tankyrase-2 (Homo sapiens, UniProt Q9H2K2). Kind of data set: Inhibition of recombinant TNKS2 (unknown origin) after 60 mins by spectrophotometric analysis.
The target of the next data set is Histamine H1 receptor (Homo sapiens, UniProt P35367). The experiment in a line: Binding affinity to histamine H1 receptor (unknown origin).
Sequence of Histamine H1 receptor (P35367 whole entry): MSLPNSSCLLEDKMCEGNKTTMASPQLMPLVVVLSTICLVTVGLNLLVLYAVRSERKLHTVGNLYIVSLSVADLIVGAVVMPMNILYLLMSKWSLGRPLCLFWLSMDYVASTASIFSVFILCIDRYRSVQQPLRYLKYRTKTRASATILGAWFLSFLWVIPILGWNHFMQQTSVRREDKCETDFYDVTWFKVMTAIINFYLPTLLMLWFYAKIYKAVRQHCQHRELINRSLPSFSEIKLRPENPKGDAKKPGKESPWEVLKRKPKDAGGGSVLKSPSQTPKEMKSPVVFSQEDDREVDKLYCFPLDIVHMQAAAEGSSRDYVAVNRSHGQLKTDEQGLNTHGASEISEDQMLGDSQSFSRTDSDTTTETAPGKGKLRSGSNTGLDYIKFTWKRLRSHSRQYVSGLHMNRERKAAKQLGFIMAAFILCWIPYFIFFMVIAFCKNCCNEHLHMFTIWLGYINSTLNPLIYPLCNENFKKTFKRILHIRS
Data set [4] deals with Alpha-1A adrenergic receptor (Homo sapiens, UniProt P35348). The experiment in a line: Binding affinity to adrenergic alpha1A receptor (unknown origin).
Sequence of Alpha-1A adrenergic receptor (P35348 whole entry): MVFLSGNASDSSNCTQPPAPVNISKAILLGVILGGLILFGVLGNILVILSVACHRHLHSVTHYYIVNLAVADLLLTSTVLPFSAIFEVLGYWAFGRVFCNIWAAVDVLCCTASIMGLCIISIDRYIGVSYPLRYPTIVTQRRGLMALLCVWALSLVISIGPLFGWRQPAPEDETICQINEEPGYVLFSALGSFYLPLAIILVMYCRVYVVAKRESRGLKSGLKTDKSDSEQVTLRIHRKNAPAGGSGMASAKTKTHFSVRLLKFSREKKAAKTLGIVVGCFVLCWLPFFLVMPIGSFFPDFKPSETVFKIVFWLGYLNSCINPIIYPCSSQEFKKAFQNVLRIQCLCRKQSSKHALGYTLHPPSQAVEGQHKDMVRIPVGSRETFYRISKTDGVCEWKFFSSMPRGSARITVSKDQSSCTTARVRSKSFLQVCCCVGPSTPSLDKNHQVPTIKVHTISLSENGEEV
The target of the next data set is Mu-type opioid receptor (Homo sapiens, UniProt P35372). The experiment in a line: Binding affinity to mu opioid receptor (unknown origin).
Sequence of Mu-type opioid receptor (P35372 whole entry): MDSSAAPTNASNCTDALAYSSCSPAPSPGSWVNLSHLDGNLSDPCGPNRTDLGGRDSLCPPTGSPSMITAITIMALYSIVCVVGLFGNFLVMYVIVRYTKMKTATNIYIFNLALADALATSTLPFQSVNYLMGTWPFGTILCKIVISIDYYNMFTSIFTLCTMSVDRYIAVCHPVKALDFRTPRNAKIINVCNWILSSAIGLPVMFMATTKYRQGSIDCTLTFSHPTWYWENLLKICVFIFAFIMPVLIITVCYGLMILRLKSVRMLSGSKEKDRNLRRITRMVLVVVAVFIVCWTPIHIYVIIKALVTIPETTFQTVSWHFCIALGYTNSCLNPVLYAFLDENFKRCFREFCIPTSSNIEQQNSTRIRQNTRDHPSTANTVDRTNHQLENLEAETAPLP
For a further data set, the target named is Bile salt export pump (Homo sapiens, UniProt O95342). The experiment in a line: Inhibition of BSEP (unknown origin).
Sequence of Bile salt export pump (O95342 whole entry): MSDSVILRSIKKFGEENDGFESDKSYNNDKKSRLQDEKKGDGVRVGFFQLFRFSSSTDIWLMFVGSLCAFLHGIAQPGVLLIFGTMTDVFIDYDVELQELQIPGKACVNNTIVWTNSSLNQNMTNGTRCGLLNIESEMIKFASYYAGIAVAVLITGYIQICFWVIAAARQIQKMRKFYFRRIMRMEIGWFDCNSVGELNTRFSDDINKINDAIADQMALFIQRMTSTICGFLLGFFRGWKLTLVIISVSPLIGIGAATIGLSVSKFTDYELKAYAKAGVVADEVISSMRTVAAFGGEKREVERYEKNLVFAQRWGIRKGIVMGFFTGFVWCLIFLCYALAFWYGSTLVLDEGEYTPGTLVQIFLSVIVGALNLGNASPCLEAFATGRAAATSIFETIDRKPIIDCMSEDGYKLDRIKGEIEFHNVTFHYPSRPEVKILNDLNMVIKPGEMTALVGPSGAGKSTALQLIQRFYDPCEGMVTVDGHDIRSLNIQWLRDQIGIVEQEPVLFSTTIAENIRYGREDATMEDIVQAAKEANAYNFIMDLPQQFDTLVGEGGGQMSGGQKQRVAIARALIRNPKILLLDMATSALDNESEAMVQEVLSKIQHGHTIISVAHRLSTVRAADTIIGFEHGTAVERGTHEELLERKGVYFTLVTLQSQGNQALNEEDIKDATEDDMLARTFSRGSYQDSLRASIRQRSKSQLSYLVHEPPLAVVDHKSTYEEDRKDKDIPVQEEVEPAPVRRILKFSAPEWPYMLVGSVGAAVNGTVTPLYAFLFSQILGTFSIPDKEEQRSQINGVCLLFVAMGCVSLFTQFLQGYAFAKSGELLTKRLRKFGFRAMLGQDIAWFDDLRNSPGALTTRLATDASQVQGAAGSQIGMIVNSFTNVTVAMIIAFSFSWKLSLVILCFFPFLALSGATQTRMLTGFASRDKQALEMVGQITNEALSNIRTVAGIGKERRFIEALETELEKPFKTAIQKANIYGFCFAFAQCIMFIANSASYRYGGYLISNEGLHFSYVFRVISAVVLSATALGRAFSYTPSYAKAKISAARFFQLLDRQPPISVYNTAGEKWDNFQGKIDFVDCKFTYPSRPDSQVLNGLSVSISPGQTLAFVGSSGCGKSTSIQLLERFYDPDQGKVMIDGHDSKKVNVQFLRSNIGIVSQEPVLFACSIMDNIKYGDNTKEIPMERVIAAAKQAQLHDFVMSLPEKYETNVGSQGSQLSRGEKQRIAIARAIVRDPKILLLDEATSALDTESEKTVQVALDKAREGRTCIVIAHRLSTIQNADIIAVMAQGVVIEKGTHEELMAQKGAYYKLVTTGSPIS
Data set [5] can be described thus: Toxicity in po dosed athymic nude mouse administered bid for 8 days. Type of data set: organism-based. The note with it: in vivo.
The nature of data set [6]: Cytotoxicity against human DLD1 cells. Type of data set: functional, cell-based. The settings on record: DLD-1.
Data set [7] addresses Beta-1 adrenergic receptor (Homo sapiens, UniProt P08588). Kind of data set: Binding affinity to adrenergic beta1 receptor (unknown origin).
The next data set addresses Adenosine receptor A2a (Homo sapiens, UniProt P29274). The experiment in a line: Binding affinity to adenosine A2A receptor (unknown origin).
Another data set concerns Mus musculus. Kind of data set: Toxicity in athymic nude mouse assessed as dehydration at 100 mg/kg, po bid for 8 days. Type of data set: organism-based. The arrangement: dose 100 mg/kg, route oral. The note with it: in vivo, 192 h.

Sequence of Beta-1 adrenergic receptor (P08588 whole entry): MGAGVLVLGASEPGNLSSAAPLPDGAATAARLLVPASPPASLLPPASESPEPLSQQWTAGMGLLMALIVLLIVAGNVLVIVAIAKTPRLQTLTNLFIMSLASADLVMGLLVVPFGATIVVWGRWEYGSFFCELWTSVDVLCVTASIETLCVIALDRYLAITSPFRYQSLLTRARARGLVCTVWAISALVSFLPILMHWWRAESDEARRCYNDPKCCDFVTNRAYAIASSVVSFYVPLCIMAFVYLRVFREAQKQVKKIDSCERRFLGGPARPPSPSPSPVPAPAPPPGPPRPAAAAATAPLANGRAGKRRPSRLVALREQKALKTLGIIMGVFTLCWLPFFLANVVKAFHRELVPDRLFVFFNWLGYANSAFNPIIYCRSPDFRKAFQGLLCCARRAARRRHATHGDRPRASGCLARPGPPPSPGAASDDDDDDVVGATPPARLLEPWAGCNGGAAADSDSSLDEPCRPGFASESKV
Sequence of Adenosine receptor A2a (P29274 whole entry): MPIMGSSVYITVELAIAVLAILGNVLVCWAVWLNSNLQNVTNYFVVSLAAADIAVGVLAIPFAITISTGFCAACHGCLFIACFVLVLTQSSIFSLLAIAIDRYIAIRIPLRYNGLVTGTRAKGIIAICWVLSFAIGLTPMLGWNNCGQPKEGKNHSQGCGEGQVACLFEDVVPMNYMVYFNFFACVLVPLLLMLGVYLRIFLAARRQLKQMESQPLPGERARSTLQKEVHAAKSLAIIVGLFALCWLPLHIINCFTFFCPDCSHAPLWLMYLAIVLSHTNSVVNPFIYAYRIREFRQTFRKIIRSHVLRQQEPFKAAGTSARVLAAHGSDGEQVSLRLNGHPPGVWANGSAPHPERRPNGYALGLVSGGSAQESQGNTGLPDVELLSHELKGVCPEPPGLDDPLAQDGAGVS

A word on the IC50: it is the concentration that inhibits the measured activity by half. In general, half-life refers to how long it takes for the measured level to halve. A higher half-life goes with slow decline. On to `CC1(C)OC(=O)N(c2ccc(-c3cnc(N)c(-c4ncccn4)c3)cc2)[C@H]1c1ccccc1`, for which, on Tankyrase 1/2, the IC50 was 0.096 µM. The half-life in [1] is 4.6 h.

For `CC1(C)OC(=O)N([C@H]2CC[C@H](c3cnc(N)c(-c4ncccn4)c3)CC2)[C@H]1c1ccccc1`, the IC50 in [2] was above 48.5 µM; in data set [3], 0.002 µM; on Histamine H1 receptor, above 48.5 µM; in [4] it was above 48.5 µM; at Mu-type opioid receptor it was above 48.5 µM; at Bile salt export pump, 11 µM. In addition, the half-maximal inhibitory concentration (IC50) is 3 µM in data set [6], above 48.5 µM in data set [7] and above 48.5 µM on Adenosine receptor A2a. Also, in [5], the MTD at 192 h is 50 mg/kg. In [1], this compound gave a half-life of 2.9 h. In addition, the Activity entry in the data set with Mus musculus is listed as “Toxic”.
